# Measurements: patent publication US10889569B2, “Condensed ring group azacyclobutyl triazole derivative, preparation method therefor and use thereof in medicine” (Jiangsu Hengrui Medicine Co., Ltd., priority 2016, dated 2021)
# Assays:
# human V2R = human V2R (Homo sapiens (Human), UniProt P30518); assay: Inhibition activity on human V2R (cAMP HTRF assay, HEK293/human V2R pool cells); type: cell-based; details: vasopressin
# Description: The inhibition effect of the compounds of the present invention on the activity of human V2R protein expressed in HEK293/human V2R cells was determined by the following experimental method:
# The pcDNA3.1-V2R plasmid was transferred into HEK293 cells with the Lipofectamine® 3000 transfection reagent; G418 was added on the next day, and the HEK293/human V2R pool cell lines were obtained.
# HEK293/human V2R pool cells were dissociated with the cell dissociation solution (enzyme-free), thereby dissociating the cells from the cell culture dish into individual cells. Then the cell solution was blown well, and centrifuged to remove the supernatant. The cells were resuspended in the test buffer 1 (1×HBSS+20 mM HEPES+0.1% BSA) and counted. The cell density was adjusted to 1250 cells/5 μl, i.e., 2.5*10^5/ml.
# The compounds were formulated into a series of concentrations of 20 mM, 6.67 mM, 2.22 mM, 0.74 mM, 0.25 mM, 0.08 mM, 27.4 μM, 9.14 μM, 3.05 μM, 1.02 μM, 0.34 μM and 0 μM (DMSO) with pure DMSO. The compounds were then diluted into a 4-fold working concentration solution with the test buffer 2 (test buffer 1+1 mM IBMX).
# Agonist: 460 μM vasopressin was used as the mother liquor, which was formulated at 2 μM with DMSO, and then diluted to 0.5 nM with the test buffer 2.
# Standards: The first point was 20 μl of a stock solution (2848 nM), which was diluted successively to a total of eleven concentrations in a 4-fold concentration gradient with the test buffer 1 from the second point.
# 1. The well-mixed cells were added to a 384-well plate (5 μl/well) without changing the tip.
# 2. The test compounds and positive compound formulated were added (2.5 μl/well), and the tips were changed.
# 3. The plate was centrifuged at 1000 rpm for 1 min, shaken for 30 sec to mix well, and incubated at room temperature for 30 min.
# 4. The standard curve wells were added with the test buffer 2 (5 μl/well).
# 5. The formulated agonist was added (2.5 μl/well), and the tips were changed; the plate was centrifuged at 1000 rpm for 1 min, shaken for 30 sec to mix well, and incubated at room temperature for 30 min.
# 6. cAMP-d2 (a component in the cAMP dynamic 2 kit) and Anti-cAMP-Eu-Cryptate (a component in the cAMP dynamic 2 kit) were formulated in the dark, which were then mixed well with cAMP lysate (a component in the cAMP dynamic 2 kit) in a ratio of 1:4. Each well was added with the formulated cAMP-d2 solution (5 μl/well), followed by addition of Anti-cAMP-Eu-Cryptate (5 μl/well). The plate was shaken for 30 sec to mix well, and incubated in the dark at room temperature for 1 h.
# The HTRF Signals were Read by the PheraStar Multi-Function Microplate Reader.
# The data in this test was processed using the data processing software Graphpad Prism.
# The inhibition activity of the compounds of the present invention on human V2R was determined by the above test, and the IC50 values obtained are shown in Table 4.
# human V1aR = human V1aR (Homo sapiens (Human), UniProt P37288); assay: Inhibition activity on human V1aR (Fluo-4 calcium assay, HEK293/human V1aR stably transfected cells); type: cell-based; details: vasopressin 3 nM
# Description: The inhibition effect of the compounds of the present invention on the activity of human V1 aR protein expressed in HEK293/human V1aR stably transfected cells was determined by the following experimental method:
# The pcDNA3.1-V1aR plasmid was transferred into HEK293 cells with the Lipofectamine® 3000 transfection reagent; G418 was added on the next day to screen, and monoclonal cell lines were selected.
# (§1) HEK293/human V1aR stably transfected cells were inoculated in a 96-well plate with an inoculation density of 25,000 cells/well one day in advance. On the next day, a loading buffer containing Fluo-4 dye was formulated using the reagents in the Fluo-4 NW calcium assay kit, and the culture medium was then removed; 100 μl of the loading buffer containing Fluo-4 dye were added to each well, and the plate was incubated at 37° C. for 30 minutes. After that, the plate was moved to room temperature and equilibrated for 10 minutes. The compounds were formulated at 10^6, 10^5, 10^4, 10^3, 10^2 and 10^1 nM. 1 μl of the compounds in each concentration was added to each well, and the plate was incubated at room temperature for 10 minutes. 50 μl of vasopressin polypeptide (3 nM) were automatically added by the machine, and the values were immediately detected at 494/516 nM by the flexstation 3 microplate reader. IC50 values of the compounds were calculated by Graphpad prism software using fluorescence signals corresponding to different concentrations.
# The inhibition activity of the compounds of the present invention on human V1aR was determined by the above test, and the obtained IC50 values are shown in Table 2.
# human V1bR = human V1bR (Homo sapiens, UniProt P47901); assay: Inhibition activity on human V1bR (Fluo-4 calcium assay, HEK293/human V1bR pool cells); type: cell-based; details: vasopressin 3 nM
# Description: The inhibition effect of the compounds of the present invention on the activity of human V1bR protein expressed in HEK293/human V1bR cells was determined by the following experimental method:
# The pcDNA3.1-V1bR plasmid was transferred into HEK293 cells with the Lipofectamine® 3000 transfection reagent; G418 was added on the next day, and the HEK293/human V1bR pool cell lines were obtained.
# as §1, with “HEK293/human V1bR pool” for “HEK293/human V1aR stably transfected”, “formulated into” for “formulated at”
# The inhibition activity of the compounds of the present invention on human V1bR was determined by the above test, and the obtained IC50 values are shown in Table 3.
# human OTR = human OTR (Homo sapiens, UniProt P30559); assay: Inhibition activity on human OTR (Fluo-4 calcium assay, HEK293/human OTR stably transfected cells); type: cell-based; details: oxytocin 3 nM
# Description: The inhibition effect of the compounds of the present invention on the activity of human OTR protein expressed in HEK293/human OTR stably transfected cells was determined by the following experimental method:
# The pcDNA3.1-hOTR plasmid was transferred into HEK293 cells with the Lipofectamine® 3000 transfection reagent; G418 was added on the next day to screen, and monoclonal cell lines were selected.
# as §1, with “OTR” for “V1aR”, “oxytocin” for “vasopressin”
# The inhibition activity of the compounds of the present invention on human OTR was determined by the above test, and the obtained IC50 values are shown in Table 1.
# [1] = Pharmacokinetics assay in rats after intragastrical administration; type: in vivo, SD rats; details: Sprague-Dawley, rat, plasma, po, 30 mg/kg, intragastric, male rats
# Description: Male SD rats were used as test animals. The drug concentration in plasma at different time points was determined by LC/MS/MS method after intragastrical administration of the compounds of Examples 2, 17, 34, 37, 38, 39 and 43 to rats. The pharmacokinetic behavior of the compounds of the present invention was studied and evaluated in rats.
# Twenty-one healthy adult male Sprague-Dawley (SD) rats were purchased from Shanghai Jiesijie Laboratory Animal Co., LTD, with Certificate No.: SCXK (Shanghai) 2013-0006, and equally divided into 7 groups (3 rats per group).
# A certain amount of the test compound was weighed, and added with 2.5% by volume of DMSO and 97.5% by volume of 10% solutol HS-15 to formulate a […] colorless, clear and transparent solution.
# After an overnight fast, SD rats were administered intragastrically the test compounds at an administration dosage of 30.0 mg/kg and an administration volume of 10.0 mL/kg.
# The rats were intragastrically administered the compounds of Examples 2, 17, 34, 37, 38, 39 and 43. 0.2 mL of blood was taken from the orbital sinus before administration and at 0.5, 1.0, 2.0, 4.0, 6.0, 8.0, 11.0 and 24.0 hours after administration. The samples were stored in heparinized tubes, and centrifuged for 10 minutes at 4° C. at 3500 rpm to separate the plasma. The plasma samples were stored at −20° C. The rats were fed 2 hours after administration.
# The content of the test compounds in the plasma of rats after intragastrical administration of the test compounds at different concentrations was determined: 50 μL of rat plasma at each time after administration was taken, added with 50 μL of the internal standard solution of camptothecin (100 ng/mL) and 150 μL of acetonitrile, vortex-mixed for 5 minutes, and centrifuged for 10 minutes (4000 rpm). 3 μL of the supernatant was taken from the plasma samples for LC/MS/MS analysis.
# Chain of human V1aR (P37288 whole entry): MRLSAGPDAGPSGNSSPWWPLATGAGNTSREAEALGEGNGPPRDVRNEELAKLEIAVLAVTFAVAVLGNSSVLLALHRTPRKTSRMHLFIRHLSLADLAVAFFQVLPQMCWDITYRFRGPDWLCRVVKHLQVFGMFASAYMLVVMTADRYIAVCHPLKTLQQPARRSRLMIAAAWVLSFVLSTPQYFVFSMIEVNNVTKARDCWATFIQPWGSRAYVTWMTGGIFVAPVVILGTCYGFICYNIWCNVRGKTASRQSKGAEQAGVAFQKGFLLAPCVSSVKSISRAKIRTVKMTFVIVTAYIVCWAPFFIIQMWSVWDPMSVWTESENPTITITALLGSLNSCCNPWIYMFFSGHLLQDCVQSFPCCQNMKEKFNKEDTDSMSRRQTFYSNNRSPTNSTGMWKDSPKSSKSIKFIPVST
# Chain of human V2R (P30518 whole entry): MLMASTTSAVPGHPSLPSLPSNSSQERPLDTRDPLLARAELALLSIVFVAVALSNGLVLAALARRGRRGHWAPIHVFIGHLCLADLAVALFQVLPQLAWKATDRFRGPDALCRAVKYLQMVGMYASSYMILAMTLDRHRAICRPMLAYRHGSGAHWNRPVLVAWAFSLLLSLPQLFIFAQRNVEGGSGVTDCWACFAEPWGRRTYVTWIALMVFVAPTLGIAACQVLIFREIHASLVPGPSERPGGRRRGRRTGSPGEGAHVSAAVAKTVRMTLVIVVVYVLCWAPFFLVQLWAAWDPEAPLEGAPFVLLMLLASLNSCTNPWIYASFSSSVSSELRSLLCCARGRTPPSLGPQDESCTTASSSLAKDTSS
SMILES,IC50 (human V2R) [µM],IC50 (human V1aR) [µM],IC50 (human V1bR) [µM],IC50 (human OTR) [µM],Vd/F ([1]; read-out: Apparent distribution volume Vz/F) [L/kg],AUC ([1]; read-out: Area under curve AUC) [ng·h/mL],CL/F ([1]; read-out: Clearance CLz/F) [mL/min/kg],half-life ([1]; read-out: Half-life T1/2 (converted)) [h],Cmax ([1]; read-out: Plasma concentration Cmax) [ng/mL]
"COCc1nnc(N2CC(c3ccnc4cc(F)ccc34)C2)n1-c1ccc(OC)nc1 [Example 1, 7-Fluoro-4-(1-(5-(methoxymethyl)-4-(6-methoxypyridin-3-yl)-4H-1,2,4-triazol-3-yl)azetidin-3-yl)quinoline]",> 100,18.1,448,–,–,–,–,–,–
"COCc1nnc(N2CC(c3csc4cc(F)ccc34)C2)n1-c1ccc(OC)nc1 [Example 9, 5-(3-(3-(6-Fluorobenzo[b]thiophen-3-yl)azetidin-1-yl)-5-(methoxymethyl)-4H-1,2,4-triazol-4-yl)-2-methoxypyridine]",12.5,1.2,42.7,0.04,–,–,–,–,–
"COCc1nnc(N2CC(c3coc4cc(F)ccc34)C2)n1-c1ccc(OC)nc1 [Example 11, 5-(3-(3-(6-Fluorobenzofuran-3-yl)azetidin-1-yl)-5-(methoxymethyl)-4H-1,2,4-triazol-4-yl)-2-methoxypyridine]",25.7,2.3,–,0.221,–,–,–,–,–
"COCc1nnc(N2CC(N3C(=O)COc4cc(F)ccc43)C2)n1-c1ccc(OC)nc1 [Example 18, 7-Fluoro-4-(1-(5-(methoxymethyl)-4-(6-methoxypyridin-3-yl)-4H-1,2,4-triazol-3-yl)azetidin-3-yl)-2H-benzo[b][1,4]oxazin-3(4H)-one]",59.4,59.5,59.5,–,–,–,–,–,–
"COCc1nnc(N2CC(N3CCc4cc(F)ccc43)C2)n1-c1ccc(OC)nc1 [Example 23, 5-Fluoro-1-(1-(5-(methoxymethyl)-4-(6-methoxypyridin-3-yl)-4H-1,2,4-triazol-3-yl)azetidin-3-yl)indoline]",52,–,–,–,–,–,–,–,–
"CCOCc1nnc(N2CC(N3CCCc4cc(F)ccc43)C2)n1-c1ccc(OC)nc1 [Example 26, 1-(1-(5-(Ethoxymethyl)-4-(6-methoxypyridin-3-yl)-4H-1,2,4-triazol-3-yl)azetidin-3-yl)-6-fluoro-1,2,3,4-tetrahydroquinoline]",1.4,–,61,0.007,–,–,–,–,–
"CCOCc1nnc(N2CC(N3CCCc4cc(F)ccc43)C2)n1-c1ccc2c(c1)OCO2 [Example 27, 1-(1-(4-(Benzo[d][1,3]dioxolan-5-yl)-5-(ethoxymethyl)-4H-1,2,4-triazol-3-yl)azetidin-3-yl)-6-fluoro-1,2,3,4-tetrahydroquinoline]",9.1,–,13.9,0.008,–,–,–,–,–
"COc1ccc(-n2c(C)nnc2N2CC(N3CCOc4cc(F)ccc43)C2)cn1 [Example 32, 7-Fluoro-4-(1-(4-(6-methoxypyridin-3-yl)-5-methyl-4H-1,2,4-triazol-3-yl)azetidin-3-yl)-3,4-dihydro-2H-benzo[b][1,4]oxazine]",> 100,23,77.2,–,–,–,–,–,–
"COc1ccc(-n2c(N3CC(N4CCOc5cc(F)ccc54)C3)nnc2C(F)(F)F)cn1 [Example 43, 7-Fluoro-4-(1-(4-(6-methoxypyridin-3-yl)-5-(trifluoromethyl)-4H-1,2,4-triazol-3-yl)azetidin-3-yl)-3,4-dihydro-2H-benzo[b][1,4]oxazine]",–,7.9,–,0.015,31.1 ± 19.3,5560 ± 2330,3.81 ± 0.12,3.31 ± 0.23,1580 ± 601
